# Assay results as given in ChEMBL document CHEMBL6103624, “Design, Synthesis, and Biological Evaluation of Marchantin C-NO Donor Hybrids for Overcoming Pgp-Mediated Drug Resistance by Targeting Lysosome” (J Med Chem, 2025).
# The source made the active and inactive calls. The rule behind the calls is not given here.
# Assays:
# [1] = molecular target: T1, ATP-dependent translocase ABCB1 (Homo sapiens, UniProt P08183); assay: Inhibition of P-gp-mediated rhodamine-123 efflux in human MCF-7/ADR cells assessed as increase in Rh123 accumulation incubated for 4 hrs by flow cytometry analysis; assay type: cell-based; conditions: at 10 to 50 nM, dose 10-50 nM
# T1 sequence (P08183 whole entry): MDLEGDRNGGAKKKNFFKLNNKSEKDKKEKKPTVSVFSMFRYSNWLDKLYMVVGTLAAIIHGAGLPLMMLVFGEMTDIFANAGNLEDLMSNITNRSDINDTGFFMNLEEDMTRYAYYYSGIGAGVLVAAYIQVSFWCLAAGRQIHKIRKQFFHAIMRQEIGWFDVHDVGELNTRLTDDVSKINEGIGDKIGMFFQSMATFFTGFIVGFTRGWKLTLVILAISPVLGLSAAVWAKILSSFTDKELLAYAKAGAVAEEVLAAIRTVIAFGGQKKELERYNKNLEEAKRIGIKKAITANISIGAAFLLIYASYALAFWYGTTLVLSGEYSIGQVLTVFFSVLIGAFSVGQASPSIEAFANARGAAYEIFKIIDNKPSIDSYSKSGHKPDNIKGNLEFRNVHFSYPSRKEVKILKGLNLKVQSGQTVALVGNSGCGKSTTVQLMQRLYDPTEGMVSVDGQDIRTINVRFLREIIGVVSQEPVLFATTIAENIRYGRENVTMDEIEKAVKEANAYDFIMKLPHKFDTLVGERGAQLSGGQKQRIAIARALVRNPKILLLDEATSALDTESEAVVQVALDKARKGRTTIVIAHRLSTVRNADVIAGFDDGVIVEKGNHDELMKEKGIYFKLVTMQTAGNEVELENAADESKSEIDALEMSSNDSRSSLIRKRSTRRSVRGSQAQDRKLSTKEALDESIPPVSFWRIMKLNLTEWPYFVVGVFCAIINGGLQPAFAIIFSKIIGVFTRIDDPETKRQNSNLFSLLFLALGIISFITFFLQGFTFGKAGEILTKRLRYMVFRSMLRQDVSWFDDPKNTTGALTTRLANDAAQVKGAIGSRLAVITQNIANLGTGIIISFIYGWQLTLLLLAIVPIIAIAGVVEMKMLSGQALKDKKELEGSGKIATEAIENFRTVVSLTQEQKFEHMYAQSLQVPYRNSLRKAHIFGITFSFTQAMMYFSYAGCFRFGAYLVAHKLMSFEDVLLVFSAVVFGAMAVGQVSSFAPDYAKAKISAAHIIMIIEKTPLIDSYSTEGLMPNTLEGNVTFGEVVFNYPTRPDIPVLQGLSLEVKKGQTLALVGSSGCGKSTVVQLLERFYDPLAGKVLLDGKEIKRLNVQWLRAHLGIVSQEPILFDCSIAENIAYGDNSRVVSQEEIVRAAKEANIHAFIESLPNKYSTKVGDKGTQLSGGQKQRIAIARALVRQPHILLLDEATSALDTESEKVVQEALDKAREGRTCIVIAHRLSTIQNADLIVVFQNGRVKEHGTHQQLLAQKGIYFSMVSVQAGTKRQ
# NCI/ADR-RES [2] = assay: Inhibition of colony formation in human MCF7ADR cells assessed as reduction in colony growth at 40 to 50 nM incubated for 12 days by crystal violet staining based assay; assay type: functional, cell-based; conditions: dose 40-50 nM, time 12.0 day
# MCF7 [3] = assay: Antiproliferative activity against human MCF7 cells assessed as inhibition of cell growth incubated for 48 hrs by MTT assay; assay type: functional, cell-based; conditions: MCF7, 48 h
# NCI/ADR-RES [4] = assay: Antiproliferative activity against human MCF7ADR cells assessed as inhibition of cell growth incubated for 48 hrs by MTT assay; assay type: functional, cell-based
# [5] = Selectivity index, ratio of IC50 for antiproliferative activity against human MCF7 cells assessed as inhibition of cell growth to IC50 for antiproliferative activity against human MCF7ADR cells assessed as inhibition of cell growth; assay type: functional
# A549 [6] = assay: Antiproliferative activity against human A549 cells assessed as inhibition of cell growth incubated for 48 hrs by MTT assay; assay type: functional, cell-based; conditions: A549, 48 h
# A549/TR [7] = assay: Antiproliferative activity against human A549/Taxol cells assessed as inhibition of cell growth incubated for 48 hrs by MTT assay; assay type: functional, cell-based
# [8] = Selectivity index, ratio of IC50 for antiproliferative activity against human A549 cells assessed as inhibition of cell growth to IC50 for antiproliferative activity against human A549/Taxol cells assessed as inhibition of cell growth; assay type: functional
# HepG2 = assay: Antiproliferative activity against human HepG2 cells assessed as inhibition of cell growth incubated for 48 hrs by MTT assay; assay type: functional, cell-based; conditions: HepG2, 48 h
# PC-3 = assay: Antiproliferative activity against human PC-3 cells assessed as inhibition of cell growth incubated for 48 hrs by MTT assay; assay type: functional, cell-based; conditions: PC-3, 48 h
# [9] = Cytotoxicity against human MCF-10A cells assessed as inhibition of cell growth incubated for 48 hrs by MTT assay; assay type: toxicity, cell-based
# [10] = Cytotoxicity against human BEAS-2B cells assessed as inhibition of cell growth incubated for 48 hrs by MTT assay; assay type: toxicity, cell-based
# NCI/ADR-RES [11] = assay: Induction of NO release in human MCF7ADR cells at 100 uM measured for 5 hrs by Griess reagent assay; assay type: functional, cell-based
# [12] = molecular target: T1, ATP-dependent translocase ABCB1; assay: Inhibition of P-gp-mediated rhodamine-123 efflux in human MCF7 cells assessed as increase in Rh123 accumulation incubated for 4 hrs by flow cytometry analysis; assay type: cell-based; conditions: mcf7, 4 h, at 10 to 50 nM, dose 10-50 nM
# NCI/ADR-RES [13] = assay: Induction of NO release in human MCF7ADR cells by DAF-FM DA probe based analysis; assay type: functional, cell-based; conditions: dose 50-100 nM
# NCI/ADR-RES [14] = assay: Induction of NO release in human MCF7ADR cells at 100 uM by Griess reagent assay; assay type: functional, cell-based; conditions: time <= 10.0 hrs
# NCI/ADR-RES [15] = assay: Upregulation of P-gp expression in human MCF-7/ADR cells at 25 to 100 nM incubated for 24 hrs by Western blot analysis; assay type: functional, cell-based; conditions: dose 25-100 nM
# MCF7 [16] = assay: Upregulation of P-gp expression in human MCF7 cells at 25 to 100 nM incubated for 24 hrs by Western blot analysis; assay type: functional, cell-based; conditions: dose 25-100 nM
# A549/TR [17] = assay: Upregulation of P-gp expression in human A549/Taxol cells at 1 to 4 uM incubated for 24 hrs by Western blot analysis; assay type: functional, cell-based; conditions: dose 1-4 µM
# A549 [18] = assay: Upregulation of P-gp expression in human A549 cells at 1 to 4 uM incubated for 24 hrs by Western blot analysis; assay type: functional, cell-based; conditions: dose 1-4 µM
# [19] = Drug localization in lysosome of human MCF-7/ADR cells assessed as emission of yellow fluorescence incubated for 1 hr by DAPI staining based laser scanning confocal microscopic analysis; assay type: ADME, subcellular
# [20] = Induction of NO release in lysosome of human MCF-7/ADR cells assessed as increase in green fluorescence intensity at 100 nM by Lyso-NO probe based laser scanning confocal microscopic analysis; assay type: subcellular; conditions: 0.1 µM, time 1-3 hrs
# [21] = Induction of NO release in lysosome of human A549/Taxol cells assessed as increase in green fluorescence intensity at 100 nM by Lyso-NO probe based laser scanning confocal microscopic analysis; assay type: subcellular; conditions: 0.1 µM, time 1-3 hrs
# Lysosomal membrane = assay: Induction of lysosomal membrane permeabilization in human MCF7ADR cells assessed as increase fluorescence intensity incubated for 6 hrs by LysoTracker red probe based laser scanning confocal microscopic analysis; assay type: subcellular; conditions: dose 50-100 nM
# NCI/ADR-RES [22] = assay: Upregulation of m-CTSD expression in human MCF7ADR cells at 50 to 100 nM incubated for 24 hrs by Western blot analysis; assay type: functional, cell-based; conditions: dose 50-100 nM
# NCI/ADR-RES [23] = assay: Induction of ROS production in human MCF-7/ADR cells in presence of elacridar; assay type: functional, cell-based
# NCI/ADR-RES [24] = assay: Induction of ROS production in human MCF-7/ADR cells in presence of NAC; assay type: functional, cell-based
# NCI/ADR-RES [25] = assay: Induction of apoptosis in human MCF7ADR cells at 25 to 50 nM incubated for 24 hrs by Annexin V-FITC/PI staining based flow cytometry analysis; assay type: functional; conditions: dose 25-50 nM
# NCI/ADR-RES [26] = assay: Induction of apoptosis in human MCF7ADR cells incubated for 24 hrs by Annexin V-FITC/PI staining based flow cytometry analysis; assay type: functional, cell-based; conditions: dose 25-50 nM
# NCI/ADR-RES [27] = assay: Upregulation of Bax expression in human MCF7ADR cells incubated for 24 hrs by Western blot analysis; assay type: functional, cell-based; conditions: dose 25-50 nM
# NCI/ADR-RES [28] = assay: Downregulation of Bcl-2 expression in human MCF7ADR cells incubated for 24 hrs by Western blot analysis; assay type: functional, cell-based; conditions: dose 25-50 nM
# NCI/ADR-RES [29] = assay: Induction of apoptosis in human MCF7ADR cells assessed as increase in PARP1 cleavage at 25 to 50 nM incubated for 24 hrs by Western blot analysis; assay type: functional, cell-based; conditions: dose 25-50 nM
# NCI/ADR-RES [30] = assay: Upregulation of Caspase-3 expression in human MCF7ADR cells at 25 to 50 nM incubated for 24 hrs by Western blot analysis; assay type: functional, cell-based; conditions: dose 25-50 nM
# NCI/ADR-RES [31] = assay: Inhibition of colony formation in human MCF7ADR cells assessed as reduction in colony growth at 40 nM incubated for 12 days in presence of hemoglobin by crystal violet staining based assay; assay type: functional, cell-based; conditions: time 12.0 day
# NCI/ADR-RES [32] = assay: Induction of cell cycle arrest in human MCF7ADR cells assessed as accumulation of cells at G2/M phase at 20 nM incubated for 24 hrs by flow cytometry analysis (reference value: 11.2%); assay type: functional
# NCI/ADR-RES [33] = assay: Induction of cell cycle arrest in human MCF7ADR cells assessed as accumulation of cells at G2/M phase at 30 nM incubated for 24 hrs by flow cytometry analysis (reference value: 11.2%); assay type: functional
# NCI/ADR-RES [34] = assay: Induction of cell cycle arrest in human MCF7ADR cells assessed as accumulation of cells at G2/M phase at 40 nM incubated for 24 hrs by flow cytometry analysis (reference value: 11.2%); assay type: functional
# NCI/ADR-RES [35] = assay: Antitumor activity against human MCF7ADR cells xenografted in BALB/c mouse at 1.25 to 5 mg/kg, ip measured for 21 days; assay type: functional, organism-based; conditions: dose 1.25-5 mg/kg, time 21.0 day
# NCI/ADR-RES [36] = assay: Antitumor activity against human MCF7ADR cells xenografted in BALB/c mouse at 1.25 mg/kg, ip measured for 21 days; assay type: functional, organism-based; conditions: time 21.0 day
# NCI/ADR-RES [37] = assay: Antitumor activity against human MCF7ADR cells xenografted in BALB/c mouse assessed as inhibition of tumor volume at 5 mg/kg, ip measured for 21 days; assay type: functional; conditions: 504 h, time 21 day
# NCI/ADR-RES [38] = assay: Antitumor activity against human MCF7ADR cells xenografted in ip dosed BALB/c mouse assessed as decrease in ki67 expression measured for 21 days; assay type: functional, organism-based; conditions: dose 1.25-5 mg/kg, time 21.0 day
# [39] = Toxicity in BALB/c mouse xenografted with human MCF7ADR cells assessed as change in body weight at 1.25 to 5 mg/kg, ip measured for 21 days; assay type: organism-based; conditions: in vivo, 504 h, dose 1.25-5 mg/kg, time 21 day
# [40] = Toxicity in BALB/c mouse xenografted with human MCF7ADR cells assessed as lung damage at 1.25 to 5 mg/kg, ip measured for 21 days by H and E staining based analysis; assay type: organism-based; conditions: in vivo, 504 h, dose 1.25-5 mg/kg, time 21 day
# [41] = Toxicity in BALB/c mouse xenografted with human MCF7ADR cells assessed as kidney damage at 1.25 to 5 mg/kg, ip measured for 21 days by H and E staining based analysis; assay type: organism-based; conditions: in vivo, 504 h, dose 1.25-5 mg/kg, time 21 day
# [42] = Toxicity in BALB/c mouse xenografted with human MCF7ADR cells assessed as spleen damage at 1.25 to 5 mg/kg, ip measured for 21 days by H and E staining based analysis; assay type: organism-based; conditions: in vivo, 504 h, dose 1.25-5 mg/kg, time 21 day
# [43] = Toxicity in BALB/c mouse xenografted with human MCF7ADR cells assessed as liver damage at 1.25 to 5 mg/kg, ip measured for 21 days by H and E staining based analysis; assay type: organism-based; conditions: in vivo, 504 h, dose 1.25-5 mg/kg, time 21 day
# [44] = Toxicity in BALB/c mouse xenografted with human MCF7ADR cells assessed as heart damage at 1.25 to 5 mg/kg, ip measured for 21 days by H and E staining based analysis; assay type: organism-based; conditions: in vivo, 504 h, dose 1.25-5 mg/kg, time 21 day
smiles,measurement,setting,value
O=S(=O)(c1ccccc1)c1c(OCCCOc2cccc3c2Oc2cccc(c2)CCc2ccc(O)c(c2)Oc2ccc(cc2)CC3)no[n+]1[O-],inhibition (INH),[1],Dose-dependent-effect
same,inhibition,NCI/ADR-RES [2],Active
same,IC50,MCF7 [3],21.2 µM
same,IC50,NCI/ADR-RES [4],0.024 µM
same,Ratio IC50,[5],883
same,IC50,A549 [6],23.8 µM
same,IC50,A549/TR [7],1.43 µM
same,Ratio IC50,[8],17
same,IC50,HepG2,6.57 µM
same,IC50,PC-3,3.36 µM
same,IC50 at 48 h,[9],14.3 µM
same,IC50 at 48 h,[10],14.8 µM
same,Activity,NCI/ADR-RES [11],Active
same,inhibition (INH),[12],Dose-dependent-effect
same,Activity,NCI/ADR-RES [13],Dose-dependent-effect
same,Activity,NCI/ADR-RES [14],Time-dependent-effect
same,Activity,NCI/ADR-RES [15],Active
same,Activity,MCF7 [16],inactive
same,Activity,A549/TR [17],Active
same,Activity,A549 [18],Active
same,Drug uptake,[19],Active
same,Activity,[20],Time-dependent-effect
same,Activity,[21],Time-dependent-effect
same,Activity,Lysosomal membrane,Dose-dependent-effect
same,Activity,NCI/ADR-RES [22],Active
same,Activity,NCI/ADR-RES [23],Active
same,Activity,NCI/ADR-RES [24],Active
same,Activity,NCI/ADR-RES [25],8.6%
same,Activity,NCI/ADR-RES [26],Dose-dependent-effect
same,Activity,NCI/ADR-RES [27],Dose-dependent-effect
same,Activity,NCI/ADR-RES [28],Dose-dependent-effect
same,Activity,NCI/ADR-RES [29],Active
same,Activity,NCI/ADR-RES [30],Active
same,inhibition,NCI/ADR-RES [31],Active
same,Activity,NCI/ADR-RES [32],18.1%
same,Activity,NCI/ADR-RES [33],20.3%
same,Activity,NCI/ADR-RES [34],25.3%
same,Activity,NCI/ADR-RES [35],Active; Displayed Strong Antitumor Activity Than Ptx
same,Activity,NCI/ADR-RES [36],Active
same,inhibition in vivo at 5 mg/kg,NCI/ADR-RES [37],62.7%
same,Activity,NCI/ADR-RES [38],Dose-dependent-effect
same,Activity,[39],Non-toxic
same,Activity,[40],Non-toxic
same,Activity,[41],Non-toxic
same,Activity,[42],Non-toxic
same,Activity,[43],Non-toxic
same,Activity,[44],Non-toxic
